Measured values as given in ChEMBL document CHEMBL1201862, “PubChem BioAssay data set” (2004).
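1) Cells in 96-well plates. 2) Compound, 48 h, 5 concentrations. 3) Linear interpolation between surrounding doses. 4) Unreached endpoint = highest concentration. GI50 marks 50% less growth.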 Active and inactive are the calls of the source. Rule as the data show it: active = GI50 up to about 1.1 µM and inactive = higher.

Key:
Assay in all cases: DTP human tumour cell line panel, 48 h
UO-31 = tested on: UO-31
CAKI-1 = tested on: CAKI-1
DLD-1 = tested on: DLD-1
OVCAR-4 = tested on: OVCAR-4
OVCAR-5 = tested on: OVCAR-5
SW-620 = tested on: SW-620
HOP-92 = tested on: HOP-92
EKVX = tested on: EKVX
MDA-MB-435 = tested on: MDA-MB-435
COLO 205 = tested on: COLO 205
Hs-578T = tested on: Hs-578T
DMS-273 = tested on: DMS-273
A498 = tested on: A498
UACC-257 = tested on: UACC-257
SNB-19 = tested on: SNB-19
HL-60 = tested on: HL-60
HT-29 = tested on: HT-29
SN12C = tested on: SN12C
Malme-3M = tested on: Malme-3M
RXF 393 = tested on: RXF 393

For `COc1ccc(C(C)c2cc3c(cc2OC)OCO3)cc1` (stereo not given), the GI50 (UO-31) was 272 nM (active), the GI50 (CAKI-1) was 107 nM (active) and the GI50 (DLD-1) was 225 nM (active). For the same compound, the GI50 (OVCAR-4) was 49400 nM (inactive), the GI50 (OVCAR-5) was 3480 nM (inactive) and the GI50 (SW-620) was 82.8 nM (active). For the same compound, the GI50 (HOP-92) was 1450 nM (inactive), the GI50 (EKVX) was 17400 nM (inactive) and the GI50 (MDA-MB-435) was 17.5 nM (active). The GI50 (COLO 205) was 135 nM (active), the GI50 (Hs-578T) was 20.7 nM (active) and the GI50 (DMS-273) was 106 nM (active). The GI50 (A498) was 646 nM (active), the GI50 (UACC-257) was 7380 nM (inactive) and the GI50 (SNB-19) was 2610 nM (inactive). The GI50 (HL-60) was 80.2 nM (active), the GI50 (HT-29) was 79.8 nM (active) and the GI50 (SN12C) was 378 nM (active). For the same compound, the GI50 (Malme-3M) was 95.1 nM (active) and the GI50 (RXF 393) was 264 nM (active).
In the case of `CC(=O)OC1CC(n2cc(F)c(=O)[nH]c2=O)OC1CO` (stereo not given), the GI50 (UO-31) is reported as 635 nM (active), the GI50 (CAKI-1) is reported as 818 nM (active) and the GI50 (DLD-1) is reported as 28800 nM (inactive). For the same compound, the GI50 (OVCAR-4) was 59800 nM (inactive), the GI50 (OVCAR-5) was > 46700 nM (inactive) and the GI50 (SW-620) was 10800 nM (inactive). For the same compound, the GI50 (HOP-92) was 1490 nM (inactive), the GI50 (EKVX) was 20000 nM (inactive) and the GI50 (MDA-MB-435) was 15700 nM (inactive). The GI50 (COLO 205) was 8750 nM (inactive), the GI50 (Hs-578T) was 7400 nM (inactive) and the GI50 (DMS-273) was 331 nM (active). For the same compound, the GI50 (A498) was 69.3 nM (active), the GI50 (UACC-257) was 49100 nM (inactive) and the GI50 (SNB-19) was 2720 nM (inactive). The GI50 (HL-60) was 4310 nM (inactive), the GI50 (HT-29) was 19900 nM (inactive) and the GI50 (SN12C) was 1230 nM (inactive). For the same compound, the GI50 (Malme-3M) was 18000 nM (inactive) and the GI50 (RXF 393) was 22200 nM (inactive).
